Measured values as given in patent US6737383B1, “Herbicidal oxadiazolidines” (priority 1999, dated 2004).

Columns and labels:
smallflower flatsedge = assay: Test B flood test smallflower flatsedge; format: in vivo, Cyperus difformis
How it was run: (§1)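 Each value is a visual injury score relative to controls, with 10 meaning complete control and 0 no effect. Evaluation took place twelve to sixteen days after the 2-leaf-stage plants were treated and kept in the greenhouse.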

wild oat = assay: Test B pre/postemergence wild oat; format: in vivo, Avena fatua; details: for Plant response rating, Wild oats: Rate 250 g/ha
How it was run: (§2)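 Herbicidal effect was estimated by eye on a ten-point control scale after plants spent twelve to sixteen days in a greenhouse following soil or foliar treatment. Foliar sprays targeted plants at one to four leaves; all doses were formulated in a non-phytotoxic solvent with surfactant.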

rape = assay: Test B pre/postemergence rape; format: in vivo, Brassica napus
How it was run: as §2

morningglory = assay: Test B pre/postemergence morningglory; format: in vivo, Ipomoea hederacea
How it was run: as §2

velvetleaf = assay: Test B pre/postemergence velvetleaf; format: in vivo, Abutilon theophrasti; details: for Plant response rating, Velvetleaf: Rate 250 g/ha
How it was run: as §2

soybean = assay: Test B pre/postemergence soybean; format: in vivo, Glycine max
How it was run: as §2

sugar beet = assay: Test B pre/postemergence sugar beet; format: in vivo, Beta vulgaris; details: for Plant response rating, Sugarbeets: Rate 250 g/ha
How it was run: as §2

blackgrass = assay: Test B pre/postemergence blackgrass; format: in vivo, Alopecurus myosuroides
How it was run: as §2

wheat = assay: Test B pre/postemergence wheat; format: in vivo, Triticum aestivum; details: for Plant response rating, Wheat: Rate 250 g/ha
How it was run: as §2

rice = assay: Test B flood test rice; format: in vivo, Oryza sativa
How it was run: as §1

cocklebur = assay: Test B pre/postemergence cocklebur; format: in vivo, Xanthium strumarium
How it was run: as §2

pigweed = assay: Test B pre/postemergence pigweed; format: in vivo, Amaranthus retroflexus
How it was run: as §2

corn = assay: Test B pre/postemergence corn; format: in vivo, Zea mays
How it was run: as §2

giant foxtail = assay: Test B pre/postemergence giant foxtail; format: in vivo, Setaria faberii
How it was run: as §2

surinam grass = assay: Test B pre/postemergence surinam grass; format: in vivo, Brachiaria decumbens
How it was run: as §2

bedstraw = assay: Test B pre/postemergence bedstraw; format: in vivo, Galium aparine
How it was run: as §2

[1] = Postemergence (flood test species), Rate 125 g/ha, scale of 0 to 10 where 0 is no effect and 10 is complete control
[2] = Rate 62 g/ha, Postemergence section, flood test species, scale of 0 to 10 where 0 is no effect and 10 is complete control
[3] = Rate 250 g/ha, Postemergence (flood test), scale 0 to 10, 0 is no effect, 10 is complete control
[4] = Rate 250 g/ha, headed Pre-emergence (flood test species), scale 0 to 10 (0 no effect, 10 complete control)
[5] = Rate 500 g/ha, headed Pre-emergence (flood test species), scale 0 to 10 (0 no effect, 10 complete control)
[6] = Rate 500 g/ha, listed under Postemergence (flood test species), scale 0 to 10, 0 no effect, 10 complete control
[7] = Rate 2000 g/ha, Pre-emergence (as headed), scale 0 to 10
[8] = Postemergence, Rate 125 g/ha, scale of 0 to 10 where 0 is no effect and 10 is complete control
[9] = Preemergence, Rate 62 g/ha, scale 0 to 10 (0 no effect, 10 complete control)
[10] = Preemergence, Rate 125 g/ha, 0 is no effect, 10 is complete control
[11] = Preemergence, scale of 0 to 10 where 0 is no effect and 10 is complete control
[12] = Preemergence, Rate 500 g/ha, scale 0 to 10 (0 no effect, 10 complete control)
[13] = Rate 62 g/ha, Postemergence, scale of 0 to 10 where 0 is no effect and 10 is complete control
[14] = Postemergence, scale 0 to 10, 0 is no effect, 10 is complete control
[15] = Rate 500 g/ha, Postemergence, scale 0 to 10, 0 no effect, 10 complete control
[16] = Postemergence, Rate 250 g/ha, scale 0 to 10, 0 no effect, 10 complete control
[17] = Preemergence, Rate 125 g/ha, scale 0 to 10 (0 no effect, 10 complete control)
[18] = Preemergence, Rate 250 g/ha, scale of 0 to 10 where 0 is no effect and 10 is complete control
[19] = Rate 250 g/ha, Postemergence, scale 0 to 10, 0 is no effect, 10 is complete control
[20] = Postemergence, Rate 62 g/ha, scale 0 to 10, 0 is no effect, 10 is complete control
[21] = Rate 125 g/ha, Postemergence, scale 0 to 10, 0 no effect, 10 complete control

## CC(C)N(C(=O)n1oc(=O)n(C2CCCCC2)c1=O)c1ccc(Cl)cc1 [Compound 111]
Smallflower flatsedge; [1]
  S. Flatsedge plant response rating: 0
Smallflower flatsedge; Pre-emergence, Rate 1000 g/ha, scale 0 to 10 (0 no effect, 10 complete control)
  S. Flatsedge plant response rating: 0
Smallflower flatsedge; [2]
  S. Flatsedge plant response rating: 0
Smallflower flatsedge; [3]
  Plant response rating, S. Flatsedge: 0
Smallflower flatsedge; [4]
  S. Flatsedge plant response rating: 0
Smallflower flatsedge; [5]
  Plant response rating, S. Flatsedge: 0
Smallflower flatsedge; [6]
  S. Flatsedge plant response rating: 0
Smallflower flatsedge; [7]
  S. Flatsedge plant response rating: 0
Wild oat; [8]
  Wild oats plant response rating: 0
Wild oat; [9]
  Wild oats plant response rating: 0
Wild oat; [10]
  Wild oats plant response rating (0 to 10 scale): 0
Wild oat; [11]
  Plant response rating, Wild oats: 2
Wild oat; [12]
  Wild oats plant response rating: 4
Wild oat; [13]
  Wild oats plant response rating: 0
Wild oat; [14]
  Plant response rating, Wild oats: 1
Wild oat; [15]
  Wild oats plant response rating: 2
rape; [8]
  Rape plant response rating: 3
rape; [16]
  Rape plant response rating: 3
rape; [9]
  Rape plant response rating: 0
rape; [17]
  Plant response rating, Rape: 0
rape; [18]
  Plant response rating, Rape: 4
rape; [12]
  Rape plant response rating: 4
rape; [13]
  Rape plant response rating: 3
rape; [15]
  Rape plant response rating: 4
morningglory; [8]
  Morningglory plant response rating: 5
morningglory; [16]
  Morningglory plant response rating: 5
morningglory; [9]
  Morningglory plant response rating: 0
morningglory; [17]
  Plant response rating, Morningglory: 0
morningglory; [18]
  Plant response rating, Morningglory: 0
morningglory; [12]
  Morningglory plant response rating: 0
morningglory; [13]
  Morningglory plant response rating: 4
morningglory; [15]
  Morningglory plant response rating: 8
velvetleaf; [8]
  Velvetleaf plant response rating: 0
velvetleaf; [9]
  Velvetleaf plant response rating: 0
velvetleaf; [10]
  Velvetleaf plant response rating (0 to 10 scale): 0
velvetleaf; [11]
  Plant response rating, Velvetleaf: 3
velvetleaf; [12]
  Velvetleaf plant response rating: 7
velvetleaf; [13]
  Velvetleaf plant response rating: 0
velvetleaf; [14]
  Plant response rating, Velvetleaf: 0
velvetleaf; [15]
  Velvetleaf plant response rating: 2
soybean; [8]
  Soybean plant response rating: 3
soybean; [9]
  Soybean plant response rating: 0
soybean; [17]
  Plant response rating, Soybean: 4
soybean; [18]
  Plant response rating, Soybean: 4
soybean; [12]
  Soybean plant response rating: 5
soybean; [13]
  Soybean plant response rating: 3
soybean; [19]
  Plant response rating, Soybean: 4
soybean; [15]
  Soybean plant response rating: 5
Sugar beet; [8]
  Sugarbeets plant response rating: 3
Sugar beet; [9]
  Sugarbeets plant response rating: 0
Sugar beet; [10]
  Sugarbeets plant response rating (0 to 10 scale): 0
Sugar beet; [11]
  Plant response rating, Sugarbeets: 3
Sugar beet; [12]
  Sugarbeets plant response rating: 4
Sugar beet; [13]
  Sugarbeets plant response rating: 2
Sugar beet; [14]
  Plant response rating, Sugarbeets: 3
Sugar beet; [15]
  Sugarbeets plant response rating: 4
blackgrass; [8]
  Blackgrass plant response rating: 3
blackgrass; [16]
  Blackgrass plant response rating: 5
blackgrass; [9]
  Blackgrass plant response rating: 0
blackgrass; [17]
  Plant response rating, Blackgrass: 0
blackgrass; [18]
  Plant response rating, Blackgrass: 2
blackgrass; [12]
  Blackgrass plant response rating: 5
blackgrass; [13]
  Blackgrass plant response rating: 0
blackgrass; [15]
  Blackgrass plant response rating: 7
wheat; [8]
  Wheat plant response rating: 0
wheat; [9]
  Wheat plant response rating: 0
wheat; [10]
  Wheat plant response rating (0 to 10 scale): 0
wheat; [11]
  Plant response rating, Wheat: 0
wheat; [12]
  Wheat plant response rating: 3
wheat; [13]
  Wheat plant response rating: 0
wheat; [14]
  Plant response rating, Wheat: 0
wheat; [15]
  Wheat plant response rating: 0
rice; [1]
  Rice plant response rating: 0
rice; [2]
  Rice plant response rating: 0
rice; [3]
  Plant response rating, Rice: 0
rice; [4]
  Rice plant response rating: 0
rice; [5]
  Plant response rating, Rice: 0
rice; [6]
  Rice plant response rating: 0
rice; Rate 1000 g/ha, Pre-emergence (as headed), scale 0 to 10
  Rice plant response rating: 0
rice; [7]
  Rice plant response rating: 0
cocklebur; [8]
  Cocklebur plant response rating: 0
cocklebur; [16]
  Cocklebur plant response rating: 2
cocklebur; [9]
  Cocklebur plant response rating: 0
cocklebur; [17]
  Plant response rating, Cocklebur: 0
cocklebur; [18]
  Plant response rating, Cocklebur: 0
cocklebur; [12]
  Cocklebur plant response rating: 0
cocklebur; [13]
  Cocklebur plant response rating: 0
cocklebur; [15]
  Cocklebur plant response rating: 3
pigweed; [8]
  Redroot pigweed plant response rating: 3
pigweed; [9]
  Redroot pigweed plant response rating: 3
pigweed; [17]
  Plant response rating, Redroot pigweed: 6
pigweed; [18]
  Plant response rating, Redroot pigweed: 8
pigweed; [12]
  Redroot pigweed plant response rating: 8
pigweed; [13]
  Redroot pigweed plant response rating: 3
pigweed; [19]
  Plant response rating, Redroot pigweed: 4
pigweed; [15]
  Redroot pigweed plant response rating: 6
corn; [8]
  Corn plant response rating: 0
corn; [16]
  Corn plant response rating: 0
corn; [9]
  Corn plant response rating: 0
corn; [17]
  Plant response rating, Corn: 1
corn; [18]
  Plant response rating, Corn: 4
corn; [12]
  Corn plant response rating: 4
corn; [13]
  Corn plant response rating: 0
corn; [15]
  Corn plant response rating: 0
Giant foxtail; [8]
  Giant foxtail plant response rating: 2
Giant foxtail; [16]
  Giant foxtail plant response rating: 5
Giant foxtail; [9]
  Giant foxtail plant response rating: 8
Giant foxtail; [17]
  Plant response rating, Giant foxtail: 9
Giant foxtail; [18]
  Plant response rating, Giant foxtail: 10
Giant foxtail; [12]
  Giant foxtail plant response rating: 10
Giant foxtail; [13]
  Giant foxtail plant response rating: 2
Giant foxtail; [15]
  Giant foxtail plant response rating: 9
Surinam grass; [20]
  B. signalgrass plant response rating: 0
Surinam grass; [16]
  B. signalgrass plant response rating: 0
Surinam grass; [9]
  B. signalgrass plant response rating: 0
Surinam grass; [17]
  Plant response rating, B. signalgrass: 1
Surinam grass; [18]
  Plant response rating, B. signalgrass: 1
Surinam grass; [12]
  B. signalgrass plant response rating: 4
Surinam grass; [21]
  B. signalgrass plant response rating: 0
Surinam grass; Rate 500 g/ha, Postemergence, scale of 0 to 10 where 0 is no effect and 10 is complete control
  B. signalgrass plant response rating: 0
bedstraw; [20]
  Bedstraw plant response rating: 5
bedstraw; [16]
  Bedstraw plant response rating: 7
bedstraw; [9]
  Bedstraw plant response rating: 0
bedstraw; [17]
  Plant response rating, Bedstraw: 0
bedstraw; [18]
  Plant response rating, Bedstraw: 0
bedstraw; [12]
  Bedstraw plant response rating: 3
bedstraw; [21]
  Bedstraw plant response rating: 5
